From US8257696B2, “Indefinite culture of human adult glia without immortalization and therapeutic uses thereof” (University of Florida Research Foundation, Inc., priority 2004, dated 2012)
“Also recorded” adds a separate entry of the source.

Legend:
Assay type in all cases: cell-based, human
[1] = system: high passage cells (HES astroglia); experiment: Senescence-associated β-galactosidase (SA-β-gal) expression after growth arrestors; conditions: evaluated 7 days after addition, 1 μg/ml aphidicolin or 20 μM EGCG, vs age-matched controls
Experimental: Primary tissue was gathered from individuals undergoing surgery related to medically intractable temporal lobe epilepsy. Primary tissue was removed and stored overnight in ice-cold DMEM/F-12 medium containing 20 mg/ml penicillin, […] streptomycin., and 25 ng/ml amphotericin B (collectively 1× antibiotics). Hippocampus (containing hilus) and temporal cortex (not containing subventricular zone) were microdissected from biopsied tissue samples (n=4, data presented from person). Dissected tissues were placed in 1× phosphate buffered saline (PBS, pH 7.3) lacking CaCl2 or MgCl2, and were manually dissociated into 1 mm^3 pieces under sterile conditions. Tissues were collected and resuspended in 0.005% trypsin (15 min, 37° C., pH 7.3), and were further triturated using restricted bore pipetting. Cells were collected, resuspended in proliferative media, and seeded onto uncoated T75 culture flasks overnight (12 hr, 37° C., 5% humidified CO2). […] Cells were dissociated with 0.005% trypsin, counted (using trypan dye exclusion as viability criteria), and were replated onto uncoated 60 mm plastic dishes. […] To assess viability of cells in various growth conditions, equal numbers of culture-matched cells were seeded into triplicate wells of various proliferative conditions, and counted 7, 14, and 21 days later. […] Significance (p<0.05) was calculated using a student's t-test. […]

[2] = system: high passage cells (HES astroglia); experiment: Growth rate by cell counting after reversible growth inhibitors and washout; conditions: for proliferation upon removal of growth inhibitors: after removal of inhibitor; for rate of cellular proliferation (growth rate): high passage cells, measured 7 days after addition
Experimental: Primary tissue was gathered from individuals undergoing surgery related to medically intractable temporal lobe epilepsy. Primary tissue was removed and stored overnight in ice-cold DMEM/F-12 medium containing 20 mg/ml penicillin, […] streptomycin., and 25 ng/ml amphotericin B (collectively 1× antibiotics). Hippocampus (containing hilus) and temporal cortex (not containing subventricular zone) were microdissected from biopsied tissue samples (n=4, data presented from person). Dissected tissues were placed in 1× phosphate buffered saline (PBS, pH 7.3) lacking CaCl2 or MgCl2, and were manually dissociated into 1 mm^3 pieces under sterile conditions. Tissues were collected and resuspended in 0.005% trypsin (15 min, 37° C., pH 7.3), and were further triturated using restricted bore pipetting. Cells were collected, resuspended in proliferative media, and seeded onto uncoated T75 culture flasks overnight (12 hr, 37° C., 5% humidified CO2). Unattached cells were collected and seeded onto uncoated 60 mm plastic dishes in proliferative media. Proliferative media was comprised of DMEM/F-12 containing N2 supplements, 35 μg/ml bovine pituitary extract, 1× antibiotics, 5% fetal calf serum (FCS), and 40 ng/ml of EGF and FGF. 20 ng of EGF and FGF were supplemented twice daily. When necessary, media was changed every fourth day. Cells were frozen in aliquots of 1 million cells in DMEM/F-12 containing 10% FCS and 20% dimethyl sulfoxide (v/v). Cells were passaged 1:2 when confluent. Cells were dissociated with 0.005% trypsin, counted (using trypan dye exclusion as viability criteria), and were replated onto uncoated 60 mm plastic dishes. For growth monitoring experiments, 1 μg/ml aphidicolin or 20 μM EGCG were added to culture media 1 hour after plating. Irradiated cells were treated with a single 3 Gy dose of X-irradiation. Following the period of application, cells were washed in 1×PBS and were resuspended in proliferative media or fixed. To assess viability of cells in various growth conditions, equal numbers of culture-matched cells were seeded into triplicate wells of various proliferative conditions, and counted 7, 14, and 21 days later. For growth factor analysis, EGF and/or FGF were removed for seven days, and surviving cells were returned to proliferative media. Significance (p<0.05) was calculated using a student's t-test. In vitro images of cultured cells were captured using a Nikon Eclipse TS-100 bright field microscope and a Spot 3.1 digital camera (Diagnostic Instruments).
Isolation and Culture of Tissue: Primary tissue was gathered from individuals undergoing surgery related to medically intractable temporal lobe epilepsy. […]

TERT = experiment: Telomerase (TERT) expression after growth arrest; conditions: high passage cells, measured 7 days after addition
Experimental: Cells were plated on coverslips coated with poly-L-lysine or polyornithine and laminin and grown to confluency in proliferative media. Cells were fixed with 4% paraformaldehyde ([…], 25° C.). After washing with PBS, cells were blocked 20 min in PBS containing 10% FCS, 5% normal goat serum, and 0.01% Triton X-100. Primary antibodies were applied for either 1 hour at 25° C. or overnight at 4° C. in PBS containing 10% FCS and 0.01% Triton X-100. Primary antibodies: β III tubulin (mouse monoclonal, 1:300, Promega), BrdU (mouse monoclonal, 1:50, Becton-Dickinson), CNPase (mouse monoclonal, 1:250, Chemicon), GFAP (rabbit polyclonal, 1:600, DAKO), glutamine synthetase (rabbit polyclonal, 1:100, AbCam), map2a-c (chicken polyclonal, 1:30,000), nestin (mouse monoclonal, 1:50, Chemicon), O4 (mouse monoclonal IgM, 1:150, Chemicon), S100-β (rabbit polyclonal, 1:100, Swant), telomerase (rabbit polyclonal, 1:200, Santa Cruz). Secondary antibodies were applied for 45 min at 25° C. in PBS containing 10% FCS and 0.01% Triton X-100. […] SA-βGal expression was assessed 7 days after addition of growth arrestors as described (Dimri, G. P. et al. Proc Nat'l Acad Sci U S A 92, 9363-7 (1995)). […] Fluorescence microscopy was performed on a Leica DMLB upright microscope and images were captured with a Spot RT Color CCD camera (Diagnostic Instruments). […]

Compound | SA-β-gal expression [1] | proliferation upon removal of growth inhibitors [2] | rate of cellular proliferation (growth rate) [2] | TERT (telomerase) expression (TERT)
epigallocatechin-3-gallate [EGCG] | marked increase in SA-β-Gal; also recorded: express SA-β-Gal | return to previous levels of proliferation | lose their ability to proliferate in culture; also recorded: significantly reduced; also recorded: significant reduction | continue to express telomerase; also recorded: remained detectable; also recorded: remained ubiquitous
C[C@@]1(CO)[C@H](O)CC[C@@]2(C)[C@H]1CC[C@H]1C[C@@H]3C[C@@]12CC[C@]3(O)CO [aphidicolin] | marked increase in SA-β-Gal; also recorded: significantly higher levels of SA-β-gal than age-matched controls | return to previous levels of proliferation | lose their ability to proliferate in culture | continue to express telomerase
